US20110160262A1, “Method of treating retinal vein occlusion” (SANTEN PHARMACEUTICAL CO., LTD., priority 2005, published 2011)

Experiments:
[1] = test system: laser-induced choroidal neovascularization; assay: laser-induced choroidal neovascularization in rats; type: in vivo; details: rat
Description: In order to study the inhibitory effect of compound represented by the general formula [I] or a salt thereof on angiogenesis, the effects of nafamostat, FUT-187 and camostat, which are compounds represented by the general formula [I] or salts thereof, on laser-induced choroidal neovascularization in rats were studied. As a comparative compound, ethyl-4-(6-guanidinohexanoyloxy)benzoate methanesulfonate (hereinafter referred to as “gabexate”) represented by the following formula [III] was used.
A rat was given systemic anesthesia by intramuscular administration of 1 ml/kg of a mixed solution of a 5% (w/v) ketamine hydrochloride injectable solution and a 2% xylazine hydrochloride injectable solution (7:1), and a 0.5% (w/v) tropicamide-0.5% phenylephrine hydrochloride ophthalmic solution was instilled into the eyes to cause mydriasis, and then photocoagulation was carried out with a krypton laser photocoagulation apparatus. The photocoagulation was carried out in a posterior pole portion of ocular fundus at eight spots per eye sparsely by focusing on the retinal deep layer avoiding thick retinal vessels (coagulation conditions: spot size: 100 μm, output: 100 mW, coagulation time: 0.1 sec.). After the photocoagulation, the ocular fundus was photographed, and the site where the laser was irradiated was confirmed.
Nafamostat was dissolved in a 5% (w/v) glucose solution (prepared by dissolving D-glucose in physiological saline) to give a final concentration of 25 mg/ml, and the resulting nafamostat solution was intraperitoneally administered once a day at a dose of 1 ml/kg for 7 days including the day of surgery from the photocoagulation surgery. In the same manner, FUT-187 solutions at 25 mg/ml and 125 mg/ml and a camostat solution at 125 mg/ml were prepared, and each of the solutions was intraperitoneally administered once a day at a dose of 1 ml/kg for 7 days including the day of surgery from the photocoagulation surgery. In a comparative compound administration group, a solution obtained by dissolving gabexate in a glucose solution to give a final concentration of 50 mg/ml was administered in the same manner as above. In a vehicle administration group, a 5% (w/v) glucose solution was administered in the same manner.
On day 7 after photocoagulation, 0.1 ml of a 10% fluorescein solution was injected into the tail vein, and fluorescence fundus photography was carried out. In the fluorescence fundus photography, a spot where fluorescence leakage was not observed (absence of angiogenesis) was judged as negative, and a spot where fluorescence leakage was observed was judged as positive. When there are two photocoagulation sites where a little fluorescence leakage was observed, they were judged as positive (presence of angiogenesis). A neovascularization incidence rate was calculated in accordance with Equation 1. The neovascularization incidence rate was calculated based on the positive spot number relative to the 8 spots irradiated with a laser, and a choroidal neovascularization inhibition rate was calculated in accordance with Equation 2. The number of animals in each administration group is 4 to 7.
Each of nafamostat and FUT-187 was dissolved in a 1% (w/v) methyl cellulose solution to give a final concentration of 20 mg/ml, and the resulting solution was orally administered three times a day at a dose of 5 ml/kg for 7 days including the day of surgery from the photocoagulation surgery. In the same manner, camostat was suspended in a 1% (w/v) methyl cellulose solution to give a final concentration of 20 mg/ml, and the resulting suspension was orally administered three times a day at a dose of 5 ml/kg for 7 days including the day of surgery from the photocoagulation surgery. In a vehicle administration group, a 1% (w/v) methyl cellulose solution was administered in the same manner.
The evaluation was carried out with the same method as described above. The case number in each administration group is 6 to 7. […]

[2] = biological target: trypsin (Homo sapiens, UniProt P07477); details: known activity; cited from earlier work
[3] = intraperitoneal administration (Table 1)
[4] = intraperitoneal, 25 mg/kg/day once a day for 7 days, evaluated day 7 after photocoagulation
[5] = oral, 300 mg/kg/day (three times a day) for 7 days, evaluated day 7
[6] = oral, intravitreal and subconjunctival administration (Tables 2 to 4)

Compound	choroidal neovascularization inhibitory effect (in words) [1, 3]	Choroidal neovascularization inhibition rate (%) [1, 4]	Choroidal neovascularization inhibition rate (%) ([1]; intraperitoneal, 125 mg/kg/day once a day for 7 days, evaluated day 7 after photocoagulation)	Choroidal neovascularization inhibition rate (%) [1, 5]	choroidal neovascularization inhibitory effect (in words) [1, 6]	trypsin inhibitory activity (in words) [2]	Choroidal neovascularization inhibition rate (%) ([1]; intraperitoneal, 50 mg/kg/day once a day for 7 days, evaluated day 7 after photocoagulation)	Choroidal neovascularization inhibition rate (%) ([1]; intravitreal, 10 nmol/eye, immediately after photocoagulation and on day 3, evaluated day 7)	Choroidal neovascularization inhibition rate (%) ([1]; subconjunctival, 100 μg/eye/day once a day, evaluated day 7)
N=C(N)c1ccc2cc(OC(=O)c3ccc(NC4=NCCN4)cc3)ccc2c1 [FUT-187, 6′-amidino-2′-naphthyl-(4-(4,5-dihydro-1H-2-imidazolyl)amino) benzoate dimethanesulfonate]	exhibited a high choroidal neovascularization inhibition rate	40.1%	71.4%	39.5%	exhibits an excellent choroidal neovascularization inhibitory effect	have the same activity	–	–	–
CCOC(=O)c1ccc(OC(=O)CCCCCNC(=N)N)cc1 [Gabexate, ethyl-4-(6-guanidinohexanoyloxy)benzoate methanesulfonate]	did not exhibit a choroidal neovascularization inhibitory effect	–	–	–	–	has a trypsin inhibitory activity	−30.2%	–	–
N=C(N)Nc1ccc(C(=O)Oc2ccc3cc(C(=N)N)ccc3c2)cc1 [Nafamostat, 6′-amidino-2′-naphthyl-4-guanidinobenzoate dimethanesulfonate]	exhibited a high choroidal neovascularization inhibition rate	50.5%	–	32%	exhibits an excellent choroidal neovascularization inhibitory effect	have the same activity	–	26.5%	51.6%
